Assay results from US10442807B2, “Aryl substituted bicyclic compounds as herbicides” (FMC Corporation, priority 2015, dated 2019).

How the values were obtained:
Format in all cases: in vivo
[1] = system: ragweed (common ragweed, Ambrosia elation); test: Test A postemergence application, visual injury rating; conditions: approx. 10 d, 0 = no effect, 100 = complete control
In short: (§1)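 Seeds sown in loam/sand soil got a directed soil spray before emergence, or plants at one- to two-leaf stage (2-10 cm) were sprayed postemergence; chemical in non-phytotoxic solvent with surfactant. Greenhouse approx. 10 d, then visual injury vs untreated controls on 0 (no effect) to 100 (complete control) scale.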

[2] = system: wheat (Triticum aestivum); test: as above; conditions: approx. 10 d, 0 = no effect, 100 = complete control
In short: as §1

[3] = system: foxtail, giant (giant foxtail, Setaria faberii); test: as above; conditions: approx. 10 d, 0 = no effect, 100 = complete control
In short: as §1

[4] = system: ryegrass, Italian (Italian ryegrass, Lolium multiflorum); test: as above; conditions: approx. 10 d, 0 = no effect, 100 = complete control
In short: as §1

[5] = system: galium (catchweed bedstraw, Galium aparine); test: as above; conditions: approx. 10 d, 0 = no effect, 100 = complete control
In short: as §1

kochia (Kochia scoparia) [6] = test: as above; conditions: approx. 10 d, 0 = no effect, 100 = complete control
In short: as §1

[7] = system: pigweed (Amaranthus retroflexus); test: as above; conditions: approx. 10 d, 0 = no effect, 100 = complete control
In short: as §1

corn (Zea mays) = test: as above; conditions: approx. 10 d, 0 = no effect, 100 = complete control
In short: as §1

[8] = system: blackgrass (Alopecurus myosuroides); test: as above; conditions: approx. 10 d, 0 = no effect, 100 = complete control
In short: as §1

[9] = system: barnyardgrass (Echinochloa crus-galli); test: as above; conditions: approx. 10 d, 0 = no effect, 100 = complete control
In short: as §1

[10] = system: ragweed (common ragweed, Ambrosia elation); test: Test A preemergence, directed soil spray, visual injury rating; conditions: approx. 10 d, 0 = no effect, 100 = complete control
In short: as §1

[11] = system: foxtail, giant (giant foxtail, Setaria faberii); test: as above; conditions: approx. 10 d, 0 = no effect, 100 = complete control
In short: as §1

[12] = system: ryegrass, Italian (Italian ryegrass, Lolium multiflorum); test: as above; conditions: approx. 10 d, 0 = no effect, 100 = complete control
In short: as §1

kochia (Kochia scoparia) [13] = test: as above; conditions: approx. 10 d, 0 = no effect, 100 = complete control
In short: as §1

[14] = system: pigweed (Amaranthus retroflexus); test: as above; conditions: approx. 10 d, 0 = no effect, 100 = complete control
In short: as §1

[15] = system: barnyardgrass (Echinochloa crus-galli); test: as above; conditions: approx. 10 d, 0 = no effect, 100 = complete control
In short: as §1

rice (Oryza sativa) = test: Test B flooded paddy test, visual plant response rating; conditions: 250 g ai/ha; applied to paddy water at 2-leaf stage; rated after 13 to 15 days; scale 0 to 100, 0 is no effect, 100 is complete control
In short: (§2)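 Visual injury score 0 to 100 against controls (0 = no effect, 100 = complete control), taken 13–15 days after treatment. Test compound went into the paddy water of pots flooded 3 cm over the soil surface, water kept at that depth in greenhouse.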

[16] = system: barnyardgrass (Echinochloa crus-galli); test: as above; conditions: 250 g ai/ha; applied to paddy water at 2-leaf stage; rated after 13 to 15 days; scale 0 to 100, 0 is no effect, 100 is complete control
In short: as §2

[17] = system: sedge, umbrella (small-flower umbrella sedge, Cyperus difformis); test: as above; conditions: 250 g ai/ha; applied to paddy water at 2-leaf stage; rated after 13 to 15 days; scale 0 to 100, 0 is no effect, 100 is complete control
In short: as §2

[18] = system: ducksalad (Heteranthera limosa); test: as above; conditions: 250 g ai/ha; applied to paddy water at 2-leaf stage; rated after 13 to 15 days; scale 0 to 100, 0 is no effect, 100 is complete control
In short: as §2

| Structure (SMILES) | Ragweed plant response rating (0 to 100 scale) ([1]; 125 g ai/ha) | Ragweed plant response rating (0 to 100 scale) ([1]; 500 g ai/ha) | Wheat plant response rating (0 to 100 scale) ([2]; 125 g ai/ha) | Wheat plant response rating (0 to 100 scale) ([2]; 500 g ai/ha) | Foxtail, Giant plant response rating (0 to 100 scale) ([3]; 125 g ai/ha) | Foxtail, Giant plant response rating (0 to 100 scale) ([3]; 500 g ai/ha) | Ryegrass, Italian plant response rating (0 to 100 scale) ([4]; 125 g ai/ha) | Ryegrass, Italian plant response rating (0 to 100 scale) ([4]; 500 g ai/ha) | Galium plant response rating (0 to 100 scale) ([5]; 125 g ai/ha) | Galium plant response rating (0 to 100 scale) ([5]; 500 g ai/ha) | Kochia plant response rating (0 to 100 scale) (kochia (Kochia scoparia) [6]; 125 g ai/ha) | Kochia plant response rating (0 to 100 scale) (kochia (Kochia scoparia) [6]; 500 g ai/ha) | Pigweed plant response rating (0 to 100 scale) ([7]; 125 g ai/ha) | Pigweed plant response rating (0 to 100 scale) ([7]; 500 g ai/ha) | Corn plant response rating (0 to 100 scale) (corn (Zea mays); 125 g ai/ha) | Corn plant response rating (0 to 100 scale) (corn (Zea mays); 500 g ai/ha) | Blackgrass plant response rating (0 to 100 scale) ([8]; 125 g ai/ha) | Blackgrass plant response rating (0 to 100 scale) ([8]; 500 g ai/ha) | Barnyardgrass plant response rating (0 to 100 scale) ([9]; 125 g ai/ha) | Barnyardgrass plant response rating (0 to 100 scale) ([9]; 500 g ai/ha) | other results |
| --- | --- | --- | --- | --- | --- | --- | --- | --- | --- | --- | --- | --- | --- | --- | --- | --- | --- | --- | --- | --- | --- |
| CCc1ccc(C2Cn3c(C)nnc3C2C(=O)Nc2cccc(F)c2F)cc1 (stereo not drawn) [Compound 23] | 0 | 0 | 0 | 0 | 30 | 70 | 0 | 0 | 0 | 30 | 30 | 30 | 0 | 0 | 0 | 20 | 0 | 20 | 50 | 90 | Ragweed plant response rating (0 to 100 scale) ([10]; 125 g ai/ha): 0; Ragweed plant response rating (0 to 100 scale) ([10]; 500 g ai/ha): 0; Foxtail, Giant plant response rating (0 to 100 scale) ([11]; 125 g ai/ha): 70; Foxtail, Giant plant response rating (0 to 100 scale) ([11]; 500 g ai/ha): 90; Ryegrass, Italian plant response rating (0 to 100 scale) ([12]; 125 g ai/ha): 0; Ryegrass, Italian plant response rating (0 to 100 scale) ([12]; 500 g ai/ha): 0; Kochia plant response rating (0 to 100 scale) (kochia (Kochia scoparia) [13]; 125 g ai/ha): 20; Kochia plant response rating (0 to 100 scale) (kochia (Kochia scoparia) [13]; 500 g ai/ha): 40; Pigweed plant response rating (0 to 100 scale) ([14]; 125 g ai/ha): 0; Pigweed plant response rating (0 to 100 scale) ([14]; 500 g ai/ha): 20; Barnyardgrass plant response rating (0 to 100 scale) ([15]; 125 g ai/ha): 60; Barnyardgrass plant response rating (0 to 100 scale) ([15]; 500 g ai/ha): 90; Plant response rating, Flood, Rice (rice (Oryza sativa)): 0; Plant response rating, Flood, Barnyardgrass [16]: 0; Plant response rating, Flood, Sedge, Umbrella [17]: 0; Plant response rating, Flood, Ducksalad [18]: 80 |
| Cc1nnc2n1CC(c1ccc(C(F)(F)F)cc1)C2C(=O)Nc1ccccc1F (stereo not drawn) [Compound 24, N-(2-fluorophenyl)-6,7-dihydro-3-methyl-6-[4-(trifluoromethyl)phenyl]-5H-pyrrolo[2,1-c]-1,2,4-triazole-7-carboxamide] | 0 | 0 | 0 | 30 | 40 | 80 | 0 | 20 | 0 | 60 | 0 | 0 | 0 | 20 | 0 | 40 | 0 | 50 | 30 | 80 | Ragweed plant response rating (0 to 100 scale) ([10]; 125 g ai/ha): 0; Ragweed plant response rating (0 to 100 scale) ([10]; 500 g ai/ha): 30; Foxtail, Giant plant response rating (0 to 100 scale) ([11]; 125 g ai/ha): 30; Foxtail, Giant plant response rating (0 to 100 scale) ([11]; 500 g ai/ha): 90; Ryegrass, Italian plant response rating (0 to 100 scale) ([12]; 125 g ai/ha): 0; Ryegrass, Italian plant response rating (0 to 100 scale) ([12]; 500 g ai/ha): 30; Kochia plant response rating (0 to 100 scale) (kochia (Kochia scoparia) [13]; 125 g ai/ha): 0; Kochia plant response rating (0 to 100 scale) (kochia (Kochia scoparia) [13]; 500 g ai/ha): 60; Pigweed plant response rating (0 to 100 scale) ([14]; 125 g ai/ha): 0; Pigweed plant response rating (0 to 100 scale) ([14]; 500 g ai/ha): 20; Barnyardgrass plant response rating (0 to 100 scale) ([15]; 125 g ai/ha): 0; Barnyardgrass plant response rating (0 to 100 scale) ([15]; 500 g ai/ha): 40; Plant response rating, Flood, Rice (rice (Oryza sativa)): 0; Plant response rating, Flood, Barnyardgrass [16]: 0; Plant response rating, Flood, Sedge, Umbrella [17]: 0; Plant response rating, Flood, Ducksalad [18]: 0 |
| CCc1ccc(C2Cn3cnnc3C2C(=O)Nc2ccccc2SC)cc1 (stereo not drawn) [Compound 25] | 0 | 0 | 0 | 0 | 0 | 30 | 0 | 0 | 0 | 0 | 30 | 30 | 0 | 0 | 0 | 0 | 0 | 0 | 20 | 30 | Ragweed plant response rating (0 to 100 scale) ([10]; 125 g ai/ha): 0; Ragweed plant response rating (0 to 100 scale) ([10]; 500 g ai/ha): 0; Foxtail, Giant plant response rating (0 to 100 scale) ([11]; 125 g ai/ha): 0; Foxtail, Giant plant response rating (0 to 100 scale) ([11]; 500 g ai/ha): 40; Ryegrass, Italian plant response rating (0 to 100 scale) ([12]; 125 g ai/ha): 0; Ryegrass, Italian plant response rating (0 to 100 scale) ([12]; 500 g ai/ha): 0; Kochia plant response rating (0 to 100 scale) (kochia (Kochia scoparia) [13]; 125 g ai/ha): 0; Kochia plant response rating (0 to 100 scale) (kochia (Kochia scoparia) [13]; 500 g ai/ha): 20; Pigweed plant response rating (0 to 100 scale) ([14]; 125 g ai/ha): 0; Pigweed plant response rating (0 to 100 scale) ([14]; 500 g ai/ha): 0; Barnyardgrass plant response rating (0 to 100 scale) ([15]; 125 g ai/ha): 0; Barnyardgrass plant response rating (0 to 100 scale) ([15]; 500 g ai/ha): 40; Plant response rating, Flood, Rice (rice (Oryza sativa)): 0; Plant response rating, Flood, Barnyardgrass [16]: 0; Plant response rating, Flood, Sedge, Umbrella [17]: 0; Plant response rating, Flood, Ducksalad [18]: 65 |
| Cc1ccc(C2Cn3cnnc3C2C(=O)Nc2cccc(F)c2C)cc1C (stereo not drawn) [Compound 26] | 0 | 0 | 30 | 0 | 50 | 80 | 0 | 20 | 30 | 0 | 0 | 0 | 0 | 0 | 20 | 0 | 0 | 50 | 50 | 80 | Ragweed plant response rating (0 to 100 scale) ([10]; 125 g ai/ha): 0; Ragweed plant response rating (0 to 100 scale) ([10]; 500 g ai/ha): 0; Foxtail, Giant plant response rating (0 to 100 scale) ([11]; 125 g ai/ha): 80; Foxtail, Giant plant response rating (0 to 100 scale) ([11]; 500 g ai/ha): 90; Ryegrass, Italian plant response rating (0 to 100 scale) ([12]; 125 g ai/ha): 0; Ryegrass, Italian plant response rating (0 to 100 scale) ([12]; 500 g ai/ha): 50; Kochia plant response rating (0 to 100 scale) (kochia (Kochia scoparia) [13]; 125 g ai/ha): 20; Kochia plant response rating (0 to 100 scale) (kochia (Kochia scoparia) [13]; 500 g ai/ha): 30; Pigweed plant response rating (0 to 100 scale) ([14]; 125 g ai/ha): 0; Pigweed plant response rating (0 to 100 scale) ([14]; 500 g ai/ha): 0; Barnyardgrass plant response rating (0 to 100 scale) ([15]; 125 g ai/ha): 60; Barnyardgrass plant response rating (0 to 100 scale) ([15]; 500 g ai/ha): 90; Plant response rating, Flood, Rice (rice (Oryza sativa)): 20; Plant response rating, Flood, Barnyardgrass [16]: 0; Plant response rating, Flood, Sedge, Umbrella [17]: 0; Plant response rating, Flood, Ducksalad [18]: 85 |
